# Test results reported in ChEMBL document CHEMBL5550186, “Exploring the Potential of Cyclic Peptidyl Antitumor Agents Derived from Natural Macrocyclic Peptide Phakellistatin 13” (J Med Chem, 2024).
# Starred links: 1 amine or outer side, 2 acyl side, 3 side chain; linkers in the order of their positions; H or OH if unused. Non-standard residues stand in square brackets, D forms with d. Residues, ends and D or L forms follow the SMILES beside them. *: point of attachment. X1 = O=C1c2ccccc2[C@@](O)(CN(Cc2ccccc2)[*:1])N1CC(=O)[*:2]; X2 = O=C1c2ccccc2[C@](O)(CN(Cc2ccccc2)[*:1])N1CC(=O)[*:2]; Bn = c1ccc(C*)cc1
# Tests used:
# [1] = Antiproliferative activity against mouse L929 cells incubated for 48 hrs by MTT assay; type: toxicity, cell-based
# 4T1 = assay: Antiproliferative activity against mouse 4T1 cells incubated for 48 hrs by MTT assay; type: functional, cell-based; conditions: 4T1, 48 h
# MDA-MB-231 = assay: Antiproliferative activity against human MDA-MB-231 cells incubated for 48 hrs by MTT assay; type: functional, cell-based; conditions: MDA-MB-231, 48 h
# BEL-7404 tumor cell line = assay: Antiproliferative activity against human BEL-7404 tumor cell line incubated for 48 hrs by MTT assay; type: functional, cell-based; conditions: BEL-7404, 48 h
# HeLa = assay: Antiproliferative activity against human HeLa cells incubated for 48 hrs by MTT assay; type: functional, cell-based
# HepG2 = assay: Antiproliferative activity against human HepG2 cells incubated for 48 hrs by MTT assay; type: functional, cell-based; conditions: HepG2, 48 h
IC50 (4T1),IC50 (MDA-MB-231),IC50 (BEL-7404 tumor cell line),IC50 (HeLa),IC50 (HepG2),Structure (SMILES),IC50 at 48 h [1]
65.9 µM,26.1 µM,38.9 µM,50.8 µM,32.6 µM,CC(C)C[C@@H]1NC(=O)[C@H]([C@@H](C)OCc2ccccc2)NC(=O)CN2C(=O)c3ccccc3[C@]2(O)CN(Cc2ccccc2)C(=O)[C@@H]2CCCN2C(=O)[C@H](Cc2ccccc2)NC(=O)[C@@H]2CCCN2C(=O)[C@H](Cc2c[nH]c3ccccc23)NC1=O (cyclo(FP[X2]T(Bn)LWP)),> 100 µM
26.8 µM,20.5 µM,49.9 µM,28.1 µM,13.1 µM,CC(C)C[C@@H]1NC(=O)[C@H]([C@@H](C)O)NC(=O)[C@@H]2CCCN2C(=O)CNC(=O)[C@H](Cc2ccccc2)NC(=O)[C@@H]2CCCN2C(=O)[C@H](Cc2c[nH]c3ccccc23)NC1=O [PHAKELLISTATIN 13] (cyclo(FGPTLWP)),> 100 µM
58.9 µM,32.6 µM,41.7 µM,55.6 µM,35.5 µM,CC(C)C[C@@H]1NC(=O)CN2C(=O)c3ccccc3[C@]2(O)CN(Cc2ccccc2)C(=O)[C@H]([C@@H](C)OCc2ccccc2)NC(=O)[C@@H]2CCCN2C(=O)[C@H](Cc2ccccc2)NC(=O)[C@@H]2CCCN2C(=O)[C@H](Cc2c[nH]c3ccccc23)NC1=O (cyclo(FPT(Bn)[X2]LWP)),> 100 µM
54.7 µM,15.4 µM,30 µM,28.6 µM,24.1 µM,CC(C)C[C@@H]1NC(=O)[C@H]([C@@H](C)OCc2ccccc2)NC(=O)[C@@H]2CCCN2C(=O)CN2C(=O)c3ccccc3[C@@]2(O)CN(Cc2ccccc2)C(=O)[C@H](Cc2ccccc2)NC(=O)[C@@H]2CCCN2C(=O)[C@H](Cc2c[nH]c3ccccc23)NC1=O,> 100 µM
42.6 µM,29.3 µM,30.2 µM,33.9 µM,28.9 µM,CC(C)C[C@@H]1NC(=O)[C@H]([C@@H](C)OCc2ccccc2)NC(=O)[C@@H]2CCCN2C(=O)[C@H](Cc2ccccc2)NC(=O)CN2C(=O)c3ccccc3[C@@]2(O)CN(Cc2ccccc2)C(=O)[C@@H]2CCCN2C(=O)[C@H](Cc2c[nH]c3ccccc23)NC1=O (cyclo(FPT(Bn)LWP[X1])),> 100 µM
67.5 µM,14.4 µM,28.7 µM,35.9 µM,31.1 µM,CC(C)C[C@@H]1NC(=O)[C@H]([C@@H](C)OCc2ccccc2)NC(=O)[C@@H]2CCCN2C(=O)[C@H](Cc2ccccc2)NC(=O)[C@@H]2CCCN2C(=O)[C@H](Cc2c[nH]c3ccccc23)NC(=O)CN2C(=O)c3ccccc3[C@@]2(O)CN(Cc2ccccc2)C1=O (cyclo(FPT(Bn)L[X1]WP)),> 100 µM
42.4 µM,17.8 µM,25.7 µM,31 µM,29 µM,CC(C)C[C@H]1NC(=O)[C@@H]([C@H](C)OCc2ccccc2)NC(=O)[C@H]2CCCN2C(=O)CN2C(=O)c3ccccc3[C@@]2(O)CN(Cc2ccccc2)C(=O)[C@@H](Cc2ccccc2)NC(=O)[C@H]2CCCN2C(=O)[C@@H](Cc2c[nH]c3ccccc23)NC1=O,> 100 µM
65.2 µM,14 µM,36.1 µM,52.8 µM,44.3 µM,CC(C)C[C@@H]1NC(=O)[C@H]([C@@H](C)OCc2ccccc2)NC(=O)[C@@H]2CCCN2C(=O)[C@H](Cc2ccccc2)NC(=O)[C@@H]2CCCN2C(=O)CN2C(=O)c3ccccc3[C@]2(O)CN(Cc2ccccc2)C(=O)[C@H](Cc2c[nH]c3ccccc23)NC1=O (cyclo(FPT(Bn)LW[X2]P)),> 100 µM
,,,20.9 µM,26.6 µM,COc1cccc2c1C(=O)c1c(O)c3c(c(O)c1C2=O)C[C@@](O)(C(=O)CO)C[C@@H]3O[C@H]1C[C@H](N)[C@H](O)[C@H](C)O1 [DOXORUBICIN],> 100 µM
